# Experiments:
# Format in all cases: in vivo, chicken
# [1] = test system: SPF white leghorn chickens; assay: Antigen Capture ELISA (AC-ELISA) for IBDV in tissue homogenates of challenged birds; settings: challenge at 28 d post hatch ± REO S-1133 and/or copper sulfate 1 lb/ton
# Description: On days 4 and 11 post challenge 10 birds were necropsied from each virus challenge group as well as an additional 10 birds from the negative control. Each bird was weighed, bled, and euthanized with CO2 gas. All bursae and proventriculi were scored for the presence of gross lesions during necropsy. The bursa, spleen, and proventriculus were individually weighed and weights recorded. Tissues from each of the first five birds were cut in half, with one half being placed into 10% buffered formalin, and the other half being placed into a sterile sampling bag (Fisher Scientific, Pittsburgh, Pa.). All tissues were pooled by organ and experimental treatment group into the buffered formalin and into the sampling bags. Tissues from the remaining five birds were placed only in the sterile sampling bags. Tissues in sterile sampling bags were frozen at −20° C. for later analysis utilizing Antigen Capture ELISA (AC-ELISA), as described by Snyder et al (11).
# Monoclonal antibody B-29 (University of Maryland, College Park, Md., Intervet Inc. , Millsboro, Del.) was diluted 1:10 in ice cold sterile distilled water. The solution was then acidified by the addition of 0.4 N sulfuric acid. The acidified monoclonal solution was incubated in an ice bath for one hour […]. Following incubation the acidified monoclonal antibody was diluted in 200 ml of coating buffer bringing the final dilution of monoclonal antibody to 1:10,000. ELISA optimized 96 well microtiter plates Corning #25805-96 (Corning Glass Works, Corning N.Y. 14831) were coated with 100 μl per well of a 1:10,000 dilution of monoclonal antibody B-29 (University of Maryland, College Park, Md.; Intervet, Inc., Millsboro Del.) ascitic fluid in coating buffer (Appendix). Plates were covered with individual plate sealers (Dynatech, Chantilly Va.), and incubated for 2 hours at 37° C. and then overnight at 4° C. Coated plates were washed three times with washing buffer (Appendix), with residual fluid being tapped out. Plates were allowed to air dry at room temperature and were then covered with individual plate sealers and stored at −20° C. until needed.
# Infectious bursal disease virus suspect tissues were homogenized in AC-ELISA dilution buffer (Appendix) at a ratio of 1:5 or approximately 20% tissue weight to volume. Homogenization was accomplished by use of a rubber mallet, followed by the addition of the dilution buffer. One hundred fifty μl of each bursal homogenate and 300 μl of each proventricular homogenate were placed in duplicate in a 96 well round bottom plate. The concentration of the bursa tissue was adjusted by addition of 150 μl of AC-ELISA dilution buffer. There was no additional dilution to the proventriculus tissue homogenates. […]
# [2] = test system: SPF white leghorn chickens; assay: Microscopic (histopathological) lesions in bursa and proventriculus; settings: for Microscopic lesions in the bursa, samples with lesions/screened / Microscopic lesions in the proventriculus, samples with lesions/screened: challenge at 28 d post hatch ± REO S-1133 and/or copper sulfate
# Description: Tissues were placed in 10% buffered formalin at necropsy. Twenty-four hours later tissues were removed and manually trimmed to a thickness of ⅛ inch and placed in tissue cassettes. Tissues were dehydrated through graded alcohols, and cleared in two changes of toluene. Tissues were then infiltrated with paraffin over a 16-hour period using an autoprocessor. Following paraffin infiltration, tissues were positioned in paraffin blocks and trimmed to expose a uniform tissue face. Prepared tissue blocks were stored at −20° C. until ready to be sectioned. Sections were cut at a thickness of 5μm and floated on a water bath containing 5% gelatin before they were placed on standard 1×3 inch slides. Tissue sections were then stained using the standard method of Harris (41), for hematoxylin and eosin.
# Tissues were examined microscopically for the presence of histopathological lesions induced by IBDV infection. […] Lesions in the bursa were predominantly lymphoid depletion with accompanied follicle degeneration Tissues were given a numerical index score based on the presence or absence of lesions as well as the intensity of the lesions. The scores ranged from a low of “0” which indicates no lesions or pathology observed to a high of “4” which indicates extensive tissue damage.
# (§1) Tissues were placed in buffered formalin at necropsy, and processed twenty-four hours later by the method described in Section 1 (55). Tissues were examined for the presence of histopathological lesions induced by IBDV infection. Lesions in the lamina propria of the proventriculus were predominantly pleomorphism of the lymphoid cells in the mucosa along with lymphocyte depletion. Lesions in the bursa were predominantly lymphoid depletion with accompanied follicle degeneration.
# (§2) Tissues were given a numerical index score based on the presence or absence as well as the intensity of the lesions present. The score ranged from a low of “0” which indicates no lesions or pathology observed to a high of “4” which indicates extensive tissue damage.
# Tissues were placed in buffered formalin at necropsy, and processed twenty-four hours later by the method described in Section 1 (55). Tissues were examined for the presence of histopathological lesions induced by IBDV infection. Tissues were given a numerical index score based on the presence or absence as well as the intensity of the lesions present. The score ranged from a low of “0” which indicates no lesions or pathology observed to a high of “4” which indicates extensive tissue damage.
# Tissues were placed in buffered formalin at necropsy, and processed twenty-four hours later by the method described in Section 1 (55). Tissues were examined for the presence of histopathological lesions induced by IBDV infection.
# [3] = test system: SPF white leghorn chickens; assay: Body weight after virus challenge
# Description: (§3) On days 4 and 11 post challenge 10 birds were necropsied from each virus challenge group and an additional 10 birds from the negative control. Each bird was weighed, bled, and euthanized by CO2 asphyxiation. All birds were necropsied at which time the bursa, and proventriculus were scored for the presence of gross lesions. The bursa, spleen, and proventriculus were individually weighed and results recorded. Tissues from each of the birds were cut in half, with one half being placed into 10% buffered formalin, and the other half being placed into a sterile sampling bag (Fisher Scientific, Pittsburgh, Pa.). Tissues in sterile sampling bags were frozen at −20° C. for later analysis utilizing IBDV Antigen Capture ELISA(AC-ELISA), as described by Snyder et al (138).
# All data was entered into Microsoft™ Excel (Microsoft Corp., Redmond, Wash.). and were analyzed using SAS (10) (SAS Institute Inc., Cary, N.C.). Statistical significance was determined at the P<0.05 level using General Linear Models Procedure and least squared means for body weight, bursa: body weight ratios, spleen: body weight ratios, and proventriculus: body weight ratios. In addition, statistical differences were determined for means of the numerical index scores for gross lesions in the bursa and proventriculus.
# [4] = test system: SPF white leghorn chickens; assay: TUNEL staining for apoptotic cells in bursa and proventriculus; parameters: key: + indicates the presence of specific fluorescence following TUNEL staining; ++: multiple “+'s” indicate visual intensity assessment; +++: multiple “+'s” indicate visual intensity assessment; ++++: multiple “+'s” indicate visual intensity assessment; −: scored as positive when present and negative when absent; settings: 4 days post challenge
# Description: Formalin fixed tissues from experiments described in Section 3 were utilized in this staining procedure. All tissues utilized were harvested at 4 days post challenge with a 1× concentration of USDA/STC IBDV or Variant E/11084 IBDV. Tissues from specific birds were selected following an initial screening with hematoxylin and eosin stained sections. Tissue preparation and sectioning were as follows. Tissues were placed in 10% buffered formalin at necropsy. Twenty-four hours later tissues were removed, manually trimmed to a thickness of ⅛ inch and placed in tissue cassettes. Tissues were dehydrated through graded alcohols and cleared in two changes of toluene. Tissues were then infiltrated with paraffin over a 16 hour period using an autoprocessor. Following paraffin infiltration, tissues were positioned in paraffin blocks and trimmed to expose a uniform tissue face. Prepared tissue blocks were stored at −20° C. until ready to be sectioned. Sections were cut at a thickness of 5 μm and floated on a water bath containing 5% gelatin to facilitate attachment (55). […]
# Tissue sections were prepared as described earlier and removed from storage at 4° C. […] Slides were stored at 4° C. overnight before viewing for the presence of fluorescence. Slides were viewed using an Olympus BX50 microscope equipped with a Olympus PM-C35X camera and Omega dye specific fluorescence filters (DAPI 385-395) (FITC 475-497). […]
# [5] = test system: commercial broiler chickens; assay: AC-ELISA for IBDV in tissue homogenates of challenged broilers; settings: broilers challenged 35 d post hatch
# Description: Broiler chickens were challenged or, day 35 post hatch (PH) with the USDA/STC IBDV prepared inoculum as described previously. Infectious bursal disease virus challenge was administered to each individual bird bilaterally to the eye (30 μl per eye) using an Eppendorf micropipettor (Brinkmann Inc., Westbury, N.Y.) and a sterile pipette tip (Costar Corp., Cambridge, Mass.).
# as §3, with “challenge 25” for “challenge 10”, “the bursa” for “the bursa,”
# AC-ELISA test plates were prepared as described earlier in Section 1. Tissues were homogenized in AC-ELISA dilution buffer at a ratio of 1:5 tissue weight to volume. Homogenates were analyzed in duplicate against IBDV monoclonal B-29 AC-ELISA plates as described earlier in Section 1. Plates were read and means were calculated for the paired samples within each group and the homogenates were determined to be positive or negative based on the mean absorbance values as compared to the negative and positive controls on each plate.
# [6] = test system: commercial broiler chickens; assay: Microscopic lesions in bursa and proventriculus of broilers; settings: broilers challenged 35 d post hatch
# Description: as §1, §2
structure (smiles),measurement,setting,value
"O=S(=O)([O-])[O-].[Cu+2] [NC + CS, copper sulfate]","AC-ELISA bursal homogenates, positive/tested",[1]; day 4 post challenge,0/10
same,"AC-ELISA proventricular homogenates, positive/tested",[1]; day 4 post challenge,0/10
same,"AC-ELISA bursal homogenates, positive/tested",[1]; day 11 post challenge,0/10
same,"AC-ELISA proventricular homogenates, positive/tested",[1]; day 11 post challenge,0/10
same,"Microscopic lesions in the bursa, samples with lesions/screened",[2]; day 4 post challenge,0/10
same,"Microscopic lesions in the proventriculus, samples with lesions/screened",[2]; day 4 post challenge,0/10
same,"Microscopic lesions in the bursa, samples with lesions/screened",[2]; day 11 post challenge,0/10
same,"Microscopic lesions in the proventriculus, samples with lesions/screened",[2]; day 11 post challenge,0/10
same,"Lesions in the proventriculus, gross or microscopic","[2]; dietary copper levels used, without virus",no lesions in the proventriculus either gross or microscopic
same,Body weight gain vs negative control,[3]; between day 4 and day 11 post challenge,significantly lower
same,Day 11 body weight means vs negative control,[3]; day 11 post challenge,significantly different
same,"TUNEL staining, bursa",[4],−
same,"TUNEL staining, proventriculus",[4],−
same,"AC-ELISA bursal homogenates, positive/tested",[5]; day 4 post challenge,0/10
same,"AC-ELISA proventricular homogenates, positive/tested",[5]; day 4 post challenge,0/10
same,"AC-ELISA bursal homogenates, positive/tested",[5]; day 11 post challenge,0/10
same,"AC-ELISA proventricular homogenates, positive/tested",[5]; day 11 post challenge,0/10
same,Microscopic lesions in the bursa,[6]; day 4 post challenge,0/10
same,Microscopic lesions in the proventriculus,[6]; day 4 post challenge,0/10
same,Microscopic lesions in the bursa,[6]; day 11 post challenge,9/10
same,Microscopic lesions in the proventriculus,[6]; day 11 post challenge,0/10
